Tests used:
[1] = tested on: DOCA-salt hypertensive rats; assay: Antihypertensive effect in DOCA-salt hypertensive rats; format: in vivo; details: 10 mg/Kg p.o., in PEG 400; DOCA-salt hypertensive rat model
Procedure: The antihypertensive effect can be determined in desoxycorticosterone acetate (DOCA)-salt hypertensive rats.
DOCA-salt hypertensive rats (280-380 g) are prepared by the standard method. Rats underwent a unilateral nephrectomy and one week later are implanted with silastic pellets containing 100 mg/kg of DOCA. The rats are maintained on 1% NaCl/0.2% KCI drinking water for three to five weeks until sustained hypertension is established. The antihypertensive activity is evaluated at this time.
Two days before an experiment, the rats are anesthetized with methoxyflurane and instrumented with catheters in the femoral artery to measure arterial blood pressure. Forty-eight hours later, baseline arterial pressure and heart rate are recorded during a 1 hour period. The test compound or vehicle is then administered and the same cardiovascular parameters are monitored for an additional 5 hours.

plasma ANF = assay: Effect on rat plasma ANF concentration during continuous ANF infusion (radioimmunoassay); format: in vivo, Male Sprague-Dawley rats; details: about 10 mg/kg p.o., in 10% ethanol/polyethylene glycol 400; conscious rats infused with ANF 450 ng/kg/min i.v.
Procedure: The effect of the compounds of the invention on rat plasma ANF concentration can be determined as follows:
Male Sprague-Dawley rats (275-390 g) are anesthetized with ketamine (150 mg/kg)/acepromazine (10%) and instrumented with catheters in the femoral artery and vein to obtain blood samples and infuse ANF, respectively. The rats are tethered with a swivel system and are allowed to recover for 24 hours before being studied in the conscious, unrestrained state.
In this assay, plasma ANF levels are determined in the presence and absence of NEP inhibition. On the day of study, all rats are infused continuously with ANF at 450 ng/kg/min. i.v. for the entire 5 hours of the experiment. Sixty minutes after beginning the infusion, blood samples for baseline ANF measurements are obtained (time 0) and the rats are then randomly divided into groups treated with the test compound or vehicle. Additional blood samples are taken 30, 60, 120, 180 and 240 minutes after administration of the test compound.
Plasma concentrations are determined by a specific radioimmunoassay. […] The supernatant is decanted and the pellets counted in a gamma counter. […] Plasma ANF levels are expressed as a percent of those measured in vehicle-treated animals which received ANF alone (450 ng/kg/min i.v.).

Q: What does the source list for `O=P(CN[C@@H](Cc1ccc(-c2ccccc2)cc1)c1nnn[nH]1)(Oc1ccccc1)Oc1ccccc1` [Example 3, (S)-[2-Biphenyl-4-yl-1-(1H-tetrazol-5-yl)-ethylamino]-methylphosphonic acid diphenyl ester]?
A: blood pressure [1]: significant reduction; plasma ANF levels (plasma ANF): significant increases

Source: patent EP0660840B1 (priority 1992, dated 1994)
